Source: paper PMC8424097, “Population Pharmacokinetics of Polymyxin B and Dosage Optimization in Renal Transplant Patients” (Frontiers in Pharmacology, 2021)
Positions of bridges follow the written chain, without caps; N, C: chain ends. Non-standard residues stand in square brackets, D forms with d. Residues, ends and D or L forms follow the SMILES beside them. *: point of attachment. X1 = CC[C@H](C)CCCCC(=O)*; Dab = NCC[C@H](N)C(=O)O

How the values were obtained:
[1] = Population pharmacokinetic analysis of polymyxin B in renal transplant patients (plasma, HPLC-MS/MS, Phoenix NLME); format: in vivo, human
Protocol: This prospective study was approved by the Ethics Committee of the Second Xiangya Hospital, Central South University. Informed consent was obtained from all patients or legal representatives of the patients (No. ChiCTR1900022231). Renal transplant patients (aged ≥18 years) who received intravenous polymyxin B (sulfate; Polymyxin B for Injection, China, SPH NO.1 BIOCHEMICAL and PHARMACEUTICAL CO. LTA) for ≥48 h were enrolled. Patients were excluded if they were pregnant, allergic or intolerant to polymyxin B and lacked the necessary data (weight or some renal function index).
All patients accepted at least 3 days of polymyxin B infusion, and the administration interval of polymyxin B was 12 h with an infusion duration of 60–120 min. One to six blood samples (2 mL) were randomly collected 30 min before the sixth dose of polymyxin B and at 0, 0.5, 1, 2, 4, 6, and 8 h after the end of infusion. Blood samples were centrifuged for 10 min (3,400 rpm/min), and the supernatant was immediately stored at −80°C until analysis. A validated high-performance liquid chromatography-tandem mass spectrometry (HPLC-MS/MS) was used to measure the concentrations of polymyxin B1 and polymyxin B2 ([Thomas et al., 2012]). Briefly, a Shim-pack GIST C18 (2.1*100 mm, 3 μm, Shimadzu) column was used. Gradient chromatography was performed with solvent A (0.1% formic acid in water) and solvent B (acetonitrile). The following gradient elution was performed at a total flow of 0.6 ml/min for analyte elution: 10–60% B from 0 to 5 min, 60%–90% B from five to 5.10 min, 90% from 5.10 to 6 min, 90%–10% B from six to 6.10 min, and 10% B from 6.10 to 10.0 min. The elution time was 10 min, and the injection volume was 2 μL. The interday precision was <12%, the intraday precision was <9%, and the accuracy ranged from 96.1 to 110.4%. The limit of quantification was 0.03 mg/L.
(§1) The following data were collected: age; sex; weight; maintenance doses; time and route of administration; site of infection; microbes; comorbidities; liver function indexes, such as alanine aminotransferase (ALT), aspartate aminotransferase (AST), total bilirubin (TBIL), direct bilirubin (DBIL), and albumin (ALB); and renal function indexes, such as uric acid (UA), blood urea nitrogen (BUN), and CrCL. CrCL was calculated according to the Cockcroft-Gault equation ([Janmahasatian et al., 2005]). CrCL ≤80 ml/min was defined as renal dysfunction, and when the basic CrCL decreased by more than 25%, nephrotoxicity was defined. Risk, injury, failure, loss and end-stage renal disease criteria were used to define acute kidney injury (AKI) in patients ([Bellomo et al., 2004]). Neurotoxicity was defined when any neurological symptoms or signs occurred during polymyxin B treatment, including dizziness, vertigo, visual disturbances, confusion, hallucinations, ataxia, seizures, and facial and peripheral paresthesia. The observed AUC0–24h of patients was calculated by daily dose/CL.
The concentration-time data of polymyxin B were analyzed with a nonlinear mixed effect modeling approach with the Phoenix NLME program (version 8.1. Pharsight, A Certara Company, United States of America). The first-order conditional estimation-extended least square method (FOCE-ELS) was used to develop the PPK model. One- and two-compartment models with linear elimination were evaluated for structure model selection based on the objective function value (OFV) and Akaike information criterion (AIC). The interindividual variability of PK parameters was described by an exponential error model. Residual variability was selected with an additive error model, proportional error model and combined error model. The covariates considered for the modeling included age, weight, ALT, AST, TBIL, DBIL, ALB, BUN, UA, and CrCL. The median of the covariate was used to normalize the covariate, and a stepwise method was used to screen the covariates. […]

[2] = Adverse effects (nephrotoxicity, neurotoxicity, skin) during polymyxin B treatment of renal transplant patients; format: in vivo, human
Protocol: as §1

[3] = cited from earlier work
Protocol: According to the results from previous pharmacokinetics and pharmacodynamics (PK/PD) studies, the bactericidal activity of polymyxin B is best correlated with the area under the concentration-time curve over 24 h in steady state divided by the minimum inhibitory concentration (AUC0–24h/MIC) ([Mohamed et al., 2012]). Moreover, the latest guidelines recommended a target plasma AUC0–24h of 50–100 mg⋅h/L to achieve bactericidal activity against an isolate with an MIC of 2 mg/L (the EUCAST and CLSI breakpoints) ([Tsuji et al., 2019]). However, due to the lack of rigorous PK data, the optimal dosing ... || Monte Carlo simulations (n = 1,000) were conducted using metrics to determine the PTA for fAUC0–24h/MIC ≥20 at various MICs (0.5–2 mg/L) in patients with different renal functions (CrCL: 10–80 ml/min), where f is the unbound fraction of polymyxin B (assumed to be 0.42) ([Sandri et al., 2013b]). The dosages were selected according to the most commonly used regimens in renal transplant patients. The regimens were as follows with a 2 h infusion: a single 50 mg loading dose followed by either 30 mg every 12 h or 40 mg every 12 h, either a loading dose of 75 mg or 100 mg followed by 50 mg every 12 ... || In the present study, a one-compartment model was used to describe the original data, which was consistent with some of the previous studies ([Kubin et al., 2018]; [Manchandani et al., 2018]). […] This difference might be mainly due to impaired renal function in the renal transplant patients in this study (CrCL: 20.89 ml/min, range: 4.29–78.84 ml/min) because we identified CrCL as a significant predic ... || (+ 1 further places)

[4] = rats, 6 h after dosing; ref Manchandani et al., 2015; cited from earlier work
Protocol: Polymyxin B is mainly distributed in the kidney, and the renal tissue/serum concentration ratio of polymyxin B was 19.62 at 6 h after dosing in rats ([Manchandani et al., 2015]). Therefore, the variation in polymyxin B accumulation in the kidney might be responsible for the differences in the apparent volume of distribution. In addition t ...

[5] = cited from earlier work; remark: listed apart in the source
Description: It is well known that nephrotoxicity is the major adverse effect of polymyxin B, with a wide range from 26.9 to 60% ([Plachouras et al., 2009]; [Akajagbor et al., 2013]; [Dubrovskaya et al., 2015]; [Rigatto et al., 2015]). In the present study, however, the incidence of AKI was extremely low, with only five patients showing nephrotoxicity. As polymyxin B-induced nephrotoxicity is a dose-limiting adverse effect, our result seemed to be consistent with the previous finding that patients with renal impairment might have a lower incidence of AKI due to the decreased percentage of tubular reabsorpt ... || The incidence of neurotoxicity was much higher than noted before (62.0 vs 7%) and has become the dose-limiting factor in our study ([Arnold et al., 2007]). […] Considering their similar structures, this mechanism might also fit polymyxin B; therefore, the higher exposure of p ...

[6] = of 50 renal transplant patients
[7] = patients of previous studies, ref Kubin et al., 2018, Manchandani et al.

In the case of `CC[C@H](C)CCCCC(=O)N[C@@H](CCN)C(=O)N[C@H](C(=O)N[C@@H](CCN)C(=O)N[C@H]1CCNC(=O)[C@H]([C@@H](C)O)NC(=O)[C@H](CCN)NC(=O)[C@H](CCN)NC(=O)[C@H](CC(C)C)NC(=O)[C@@H](Cc2ccccc2)NC(=O)[C@H](CCN)NC1=O)[C@@H](C)O` [polymyxin B] (X1-[Dab]T[Dab][Dab][Dab][dF]L[Dab][Dab]T; lactam 4-C), the “CL, bootstrap median” value ([1]; bootstrap, 1000 resamples) is reported as 1.17 L/h, the “V, bootstrap median” value ([1]; bootstrap, 1000 resamples) is reported as 11.98 L and the “Θ CrCL, bootstrap median” value ([1]; bootstrap, 1000 resamples) is reported as 0.14. The “mean AUC0–24h (observed)” value ([1]; calculated by daily dose/CL, mean ± SD, SD) was 74600 ± 17810 ng·h/mL, the “Θ CrCL (exponent for CrCL as a covariate for CL), final model estimate” value ([1]; final PPK model) was 0.14 and the Vd ([1]; human, intravenous q 12 h, one-compartment PPK model, 151 plasma samples from 50 patients, HPLC-MS/MS, read-out: V, final model estimate) was 12.1 L. The clearance ([1]; human, intravenous q 12 h, one-compartment PPK model, typical value at CrCL 22.2 ml/min, 151 plasma samples from 50 patients, read-out: CL, final model estimate (converted)) was 19.7 mL/min, the incidence of dermatitis ([2]; 50 renal transplant patients) was 34.0% and the incidence of neurotoxicity ([2]; 50 renal transplant patients) was 62.0%. For the same compound, the “nephrotoxicity classified as injury (RIFLE)” value [2, 6] was “one”, the “nephrotoxicity classified as risk (RIFLE)” value [2, 6] was “four” and the patients with dermatitis [2, 6] was “Seventeen”. For the same compound, the patients with dizziness [2, 6] was “three”, the “patients with facial and peripheral paresthesia” value [2, 6] was 29 patients and the “patients with nephrotoxicity (basic CrCL decreased by more than 25%)” value [2, 6] was “five”. For the same compound, the “patients with neurotoxicity of different degrees” value [2, 6] was 31 patients, the patients with seizures [2, 6] was “three” and the patients with pigmentation ([2]; of 50 renal transplant patients, all disappeared 1 month after withdrawal) was “Seven”. For the same compound, the “days printed for the nephrotoxicity case classified as injury” value ([2]; renal transplant patients) was 11 days, the “days printed for the nephrotoxicity cases (all five)” value ([2]; renal transplant patients) was 3 to 11 days and the “days printed for the nephrotoxicity cases classified as risk” value ([2]; renal transplant patients) was 3 to 7 days. For the same compound, the “CL reported in previous one-compartment models” value [3, 7] was 2.37 to 2.5 L/h, the “V reported by previous studies” value [3, 7] was 34.3 to 34.4 L and the “urinary recovery (range between patients)” value ([3]; previous study in patients, ref Sandri et al., 2013b) was 0.98–17.4%. For the same compound, the “patients achieving the AUC0–24h target at the recommended dosage” value ([3]; ref Lakota et al., 2018) was 71%, the “unbound fraction f (assumed)” value ([3]; used for fAUC0–24h/MIC in the simulations, ref Sandri et al., 2013b) was 0.42 and the “renal tissue/serum concentration ratio” value [4] was 19.62. For the same compound, the “incidence of neurotoxicity noted before” value ([5]; ref Arnold et al., 2007) was 7% and the “incidence of nephrotoxicity (range of previous reports)” value ([5]; ref Plachouras et al., 2009, Akajagbor et al., 2013, Dubrovskaya et al., 2015, Rigatto et al., 2015) was 26.9 to 60%.
